pIC50: −log10 of the molar value.
How the values were obtained:
Test in all cases: cells
D283 Med = assay type: functional, cell-based, Homo sapiens; details: Homo sapiens, D283 Med
Description: SANGER: Inhibition of human D-283MED cell growth in a cell viability assay.

RS4-11 = assay type: functional, cell-based, Homo sapiens; details: Homo sapiens, RS4-11;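 further: growth inhibition of RS4-11 cells, read out by a cell viability assay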
Description: SANGER: Inhibition of human RS4-11 cell growth in a cell viability assay.

NCI-H526 = assay type: functional, cell-based, Homo sapiens; details: Homo sapiens, NCI-H526;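 further: growth inhibition of the human NCI-H526 cell line, measured by a cell viability assay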
Description: SANGER: Inhibition of human NCI-H526 cell growth in a cell viability assay.

EW-24 = assay type: functional, cell-based, Homo sapiens; details: Homo sapiens, EW-24;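 further: human EW-24 cancer cell line, growth inhibition read out via a cell viability assay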
Description: SANGER: Inhibition of human EW-24 cell growth in a cell viability assay.

NB69 = assay type: functional, cell-based, Homo sapiens; details: Homo sapiens, NB69;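 further: growth inhibition of NB69 cells, determined by a cell viability assay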
Description: SANGER: Inhibition of human NB69 cell growth in a cell viability assay.

TK-10 = assay type: functional, cell-based, Homo sapiens; details: Homo sapiens, TK-10;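 further: growth inhibition of TK-10 cells, read out in a cell viability assay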
Description: SANGER: Inhibition of human TK10 cell growth in a cell viability assay.

HDLM-2 = assay type: functional, cell-based, Homo sapiens; details: Homo sapiens, HDLM-2;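 further: cell viability assay measuring suppression of HDLM-2 proliferation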
Description: SANGER: Inhibition of human HDLM-2 cell growth in a cell viability assay.

NCI-H747 = assay type: functional, cell-based, Homo sapiens; details: Homo sapiens, NCI-H747;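 further: growth inhibition of human NCI-H747 cells, read out by a cell viability assay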
Description: SANGER: Inhibition of human NCI-H747 cell growth in a cell viability assay.

SK-NEP-1 = assay type: functional, cell-based, Homo sapiens; details: Homo sapiens, SK-NEP-1;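 further: growth inhibition of human SK-NEP-1 cells, read out by a cell viability assay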
Description: SANGER: Inhibition of human SK-NEP-1 cell growth in a cell viability assay.

D-247MG = assay type: functional, cell-based, Homo sapiens; details: Homo sapiens, D-247MG
Description: SANGER: Inhibition of human D-247MG cell growth in a cell viability assay.

MPP-89 = assay type: functional, cell-based, Homo sapiens; details: Homo sapiens, MPP-89;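 further: growth inhibition of human MPP-89 cells, read out with a cell viability assay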
Description: SANGER: Inhibition of human MPP-89 cell growth in a cell viability assay.

GB-1 = assay type: functional, cell-based, Homo sapiens; details: Homo sapiens, GB-1;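 further: growth of GB-1 cells judged by a viability assay, IC50 marks the concentration inhibiting growth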
Description: SANGER: Inhibition of human GB-1 cell growth in a cell viability assay.

DU-4475 = assay type: functional, cell-based, Homo sapiens; details: Homo sapiens, DU-4475
Description: SANGER: Inhibition of human DU-4475 cell growth in a cell viability assay.

OCUB-M = assay type: functional, cell-based, Homo sapiens; details: Homo sapiens, OCUB-M;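 further: growth inhibition of the cancer cell line, read out through a cell viability assay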
Description: SANGER: Inhibition of human OCUB-M cell growth in a cell viability assay.

D-502MG = assay type: functional, cell-based, Homo sapiens; details: Homo sapiens, D-502MG
Description: SANGER: Inhibition of human D-502MG cell growth in a cell viability assay.

CAS-1 = assay type: functional, cell-based, Homo sapiens; details: Homo sapiens, CAS-1;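 further: growth inhibition of CAS-1 cells, measured with a cell viability assay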
Description: SANGER: Inhibition of human CAS-1 cell growth in a cell viability assay.

GI-ME-N = assay type: functional, cell-based, Homo sapiens; details: Homo sapiens, GI-ME-N;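 further: growth inhibition of human GI-ME-N cells, read out with a cell viability assay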
Description: SANGER: Inhibition of human GI-ME-N cell growth in a cell viability assay.

Ramos-2G6-4C10 = assay type: functional, cell-based, Homo sapiens; details: Homo sapiens, Ramos-2G6-4C10;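 further: growth inhibition of the cell line, measured by a cell viability read-out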
Description: SANGER: Inhibition of human Ramos-2G6-4C10 cell growth in a cell viability assay.

KS-1 = assay type: functional, cell-based, Homo sapiens; details: Homo sapiens, KS-1;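 further: growth inhibition of KS-1 cells, read out with a cell viability assay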
Description: SANGER: Inhibition of human KS-1 cell growth in a cell viability assay.

EW-11 = assay type: functional, cell-based, Homo sapiens; details: Homo sapiens, EW-11;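 further: growth inhibition of human EW-11 cells, measured with a cell viability assay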
Description: SANGER: Inhibition of human EW-11 cell growth in a cell viability assay.

NCI-H1304 = assay type: functional, cell-based, Homo sapiens; details: Homo sapiens, NCI-H1304;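 further: growth inhibition of the cancer cell line, measured in a cell viability assay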
Description: SANGER: Inhibition of human NCI-H1304 cell growth in a cell viability assay.

GOTO = assay type: functional, cell-based, Homo sapiens; details: Homo sapiens, GOTO;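 further: growth inhibition of GOTO cells, read out by a cell viability assay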
Description: SANGER: Inhibition of human GOTO cell growth in a cell viability assay.

MSTO-211H = assay type: functional, cell-based, Homo sapiens; details: Homo sapiens, MSTO-211H
Description: SANGER: Inhibition of human MSTO-211H cell growth in a cell viability assay.

K5 = assay type: functional, cell-based, Homo sapiens; details: Homo sapiens, K5
Description: SANGER: Inhibition of human K5 cell growth in a cell viability assay.

IST-SL1 = assay type: functional, cell-based, Homo sapiens; details: Homo sapiens, IST-SL1;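 further: growth inhibition of human IST-SL1 cells, read out with a cell viability assay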
Description: SANGER: Inhibition of human IST-SL1 cell growth in a cell viability assay.

MMAC-SF = assay type: functional, cell-based, Homo sapiens; details: Homo sapiens, MMAC-SF;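 further: growth inhibition of human MMAC-SF cells, read out with a cell viability assay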
Description: SANGER: Inhibition of human MMAC-SF cell growth in a cell viability assay.

IST-MES1 = assay type: functional, cell-based, Homo sapiens; details: Homo sapiens, IST-MES1;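 further: growth inhibition of IST-MES1 cells, measured with a cell viability assay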
Description: SANGER: Inhibition of human IST-MES1 cell growth in a cell viability assay.

RCC10RGB = assay type: functional, cell-based, Homo sapiens; details: Homo sapiens, RCC10RGB;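 further: growth inhibition of human RCC10RGB cells, read out by a cell viability assay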
Description: SANGER: Inhibition of human RCC10RGB cell growth in a cell viability assay.

U-87 MG = assay type: functional, cell-based, Homo sapiens, U-87MG ATCC; details: Homo sapiens, U-87 MG;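 further: growth inhibition of the cells measured with a viability assay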
Description: SANGER: Inhibition of human U-87-MG cell growth in a cell viability assay.

EM-2 = assay type: functional, cell-based, Homo sapiens; details: Homo sapiens, EM-2;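 further: growth inhibition of EM-2 cells, read out with a cell viability assay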
Description: SANGER: Inhibition of human EM-2 cell growth in a cell viability assay.

NCI-H1355 = assay type: functional, cell-based, Homo sapiens; details: Homo sapiens, NCI-H1355;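 further: growth inhibition of human NCI-H1355 cells, read out by a cell viability assay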
Description: SANGER: Inhibition of human NCI-H1355 cell growth in a cell viability assay.

CGTH-W-1 = assay type: functional, cell-based, Homo sapiens; details: Homo sapiens, CGTH-W-1;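 further: growth inhibition of human CGTH-W-1 cells measured by cell viability assay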
Description: SANGER: Inhibition of human CGTH-W-1 cell growth in a cell viability assay.

SK-MEL-1 = assay type: functional, cell-based, Homo sapiens; details: Homo sapiens, SK-MEL-1;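 further: growth inhibition of human SK-MEL-1 cells, read out by a cell viability assay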
Description: SANGER: Inhibition of human SK-MEL-1 cell growth in a cell viability assay.

TE-6 = assay type: functional, cell-based, Homo sapiens; details: Homo sapiens, TE-6;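 further: growth inhibition of TE-6 cells, read out with a cell viability assay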
Description: SANGER: Inhibition of human TE-6 cell growth in a cell viability assay.

NCI-H510A = assay type: functional, cell-based, Homo sapiens; details: Homo sapiens, NCI-H510A;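 further: growth inhibition of NCI-H510A cells, read out with a cell viability assay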
Description: SANGER: Inhibition of human NCI-H510A cell growth in a cell viability assay.

C2BBe1 = assay type: functional, cell-based, Homo sapiens; details: Homo sapiens, C2BBe1;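 further: growth inhibition of C2BBe1 cells, read out through a viability assay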
Description: SANGER: Inhibition of human C2BBe1 cell growth in a cell viability assay.

NCI-H1395 = assay type: functional, cell-based, Homo sapiens; details: Homo sapiens, NCI-H1395;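 further: cell viability assay read-out quantifying reduced proliferation of human NCI-H1395 cells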
Description: SANGER: Inhibition of human NCI-H1395 cell growth in a cell viability assay.

MOLT-16 = assay type: functional, cell-based, Homo sapiens; details: Homo sapiens, MOLT-16;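 further: growth inhibition of human MOLT-16 cells, read out with a cell viability assay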
Description: SANGER: Inhibition of human MOLT-16 cell growth in a cell viability assay.

NB13 = assay type: functional, cell-based, Homo sapiens; details: Homo sapiens, NB13;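 further: cell viability readout measuring growth inhibition of human NB13 cells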
Description: SANGER: Inhibition of human NB13 cell growth in a cell viability assay.

GI-1 = assay type: functional, cell-based, Homo sapiens; details: Homo sapiens, GI-1;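 further: growth inhibition of human GI-1 cells, measured with a cell viability readout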
Description: SANGER: Inhibition of human GI-1 cell growth in a cell viability assay.

U-266 = assay type: functional, cell-based, Homo sapiens; details: Homo sapiens, U-266
Description: SANGER: Inhibition of human U-266 cell growth in a cell viability assay.

DSH1 = assay type: functional, cell-based, Homo sapiens; details: Homo sapiens, DSH1;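 further: growth inhibition of human DSH1 cells, measured with a cell viability readout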
Description: SANGER: Inhibition of human DSH1 cell growth in a cell viability assay.

HOP-62 = assay type: functional, cell-based, Homo sapiens; details: Homo sapiens, HOP-62;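 further: cell growth inhibition determined with a viability assay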
Description: SANGER: Inhibition of human HOP-62 cell growth in a cell viability assay.

OS-RC-2 = assay type: functional, cell-based, Homo sapiens; details: Homo sapiens, OS-RC-2;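 further: growth inhibition of human OS-RC-2 cells, measured by a cell viability assay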
Description: SANGER: Inhibition of human OS-RC-2 cell growth in a cell viability assay.

BE-13 = assay type: functional, cell-based, Homo sapiens; details: Homo sapiens, BE-13;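 further: growth inhibition of human BE-13 cells, measured with a cell viability assay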
Description: SANGER: Inhibition of human BE-13 cell growth in a cell viability assay.

EW-3 = assay type: functional, cell-based, Homo sapiens; details: Homo sapiens, EW-3;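 further: cell viability assay read-out, IC50 reflects inhibition of growth of the EW-3 cells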
Description: SANGER: Inhibition of human EW-3 cell growth in a cell viability assay.

Measured: pIC50

COc1cc(N2CCN(C)CC2)ccc1Nc1ncc2c(n1)N(C)c1ccccc1C(=O)N2C
5.18: HOP-62
6.05: GI-ME-N
5.57: MOLT-16
5.35: MPP-89
5.25: Ramos-2G6-4C10
5.27: KS-1
5.47: RS4-11
5.11: NB69
5.80: D-247MG
< 5.10: all other assays above

COc1cc2ncn(-c3cc(OCc4ccccc4S(C)(=O)=O)c(C#N)s3)c2cc1OC [GSK-319347A]
< 5.30: all assays above

Source: ChEMBL document CHEMBL1201861, “Genomics of Drug Sensitity in Cancer screening data, Wellcome Trust Sanger Institute”
